Molecular target: T1, mutant CFTR (Homo sapiens, UniProt P13569, DEL508-508)
T1 construct: expressed in transfected cells
Experiment: Fluorescence (HS-YFP) assay for CFTR activity, corrector assay
Type: cell-based
Details: CFBE41o- and FRT cells with stable expression of mutant CFTR, 24 h compound treatment
Method: Fluorescence Assay for CFTR Activity
Mutant CFTR activity was determined with the functional assay based on the halide-sensitive yellow fluorescent protein, HS-YFP (Galietta et al., FEBS Lett 499: 220-224, 2001). CFBE41o- and FRT cells with stable expression of mutant CFTR and HS-YFP were plated on clear-bottom 96-well black microplates (Code 3603, Corning Life Sciences) at a density of 50,000 cells/well and kept at 37° C. in 5% CO2 for 24 hours. For the corrector assay, cells were treated for further 24 hours with test compounds, vehicle (DMSO), or the positive control VX-809. After treatment, the culture medium was removed and cells in each well were stimulated for 30 min at 37° C. with 60 μL PBS (containing 137 mM NaCl, 2.7 mM KCl, 8.1 mM Na2HPO4, 1.5 mM KH2PO4, 1 mM CaCl2, and 0.5 mM MgCl2) plus forskolin (20 μM) and genistein (50 μM).
For determination of potentiator activity on G551D-CFTR or G1349D-CFTR, cells were directly stimulated with forskolin plus test compound without previous incubation at low temperature. At the time of assay, microplates carrying CFBE41o- or FRT cells were transferred to microplate readers (BMG Labtech) equipped with high-quality excitation (HQ500/20X: 500±10 nm) and emission (HQ535/30M: 535±15 nm) filters for YFP (Chroma Technology). The assay consisted of a continuous 14 s fluorescence reading with 2 s before and 12 s after injection of an iodide-containing solution (165 μL of a modified PBS containing I^− instead of Cl^−; final I^− concentration in the well: 100 mM). Data were normalized to the initial background-subtracted fluorescence. Enhanced CFTR activity, induced by correctors and/or potentiators, results in accelerated I^− influx that in turn causes faster HS-YFP quenching (Pedemonte et al., Mol Pharmacol 68:1736-1746, 2005; Pedemonte et al., J Clin Invest 115:2564-2571, […]). To determine fluorescence quenching rate associated with I^− influx, the […] 10 s of data for each well were fitted with an exponential function to extrapolate initial slope (dF/dt).
EC50 obtained are illustrated in table 1 wherein +: EC50>2 μM; ++: 1.0 μM<EC50<2 μM; +++: EC50<1 μM.

T1 sequence (P13569 with tags, fused parts or gaps DEL508-508): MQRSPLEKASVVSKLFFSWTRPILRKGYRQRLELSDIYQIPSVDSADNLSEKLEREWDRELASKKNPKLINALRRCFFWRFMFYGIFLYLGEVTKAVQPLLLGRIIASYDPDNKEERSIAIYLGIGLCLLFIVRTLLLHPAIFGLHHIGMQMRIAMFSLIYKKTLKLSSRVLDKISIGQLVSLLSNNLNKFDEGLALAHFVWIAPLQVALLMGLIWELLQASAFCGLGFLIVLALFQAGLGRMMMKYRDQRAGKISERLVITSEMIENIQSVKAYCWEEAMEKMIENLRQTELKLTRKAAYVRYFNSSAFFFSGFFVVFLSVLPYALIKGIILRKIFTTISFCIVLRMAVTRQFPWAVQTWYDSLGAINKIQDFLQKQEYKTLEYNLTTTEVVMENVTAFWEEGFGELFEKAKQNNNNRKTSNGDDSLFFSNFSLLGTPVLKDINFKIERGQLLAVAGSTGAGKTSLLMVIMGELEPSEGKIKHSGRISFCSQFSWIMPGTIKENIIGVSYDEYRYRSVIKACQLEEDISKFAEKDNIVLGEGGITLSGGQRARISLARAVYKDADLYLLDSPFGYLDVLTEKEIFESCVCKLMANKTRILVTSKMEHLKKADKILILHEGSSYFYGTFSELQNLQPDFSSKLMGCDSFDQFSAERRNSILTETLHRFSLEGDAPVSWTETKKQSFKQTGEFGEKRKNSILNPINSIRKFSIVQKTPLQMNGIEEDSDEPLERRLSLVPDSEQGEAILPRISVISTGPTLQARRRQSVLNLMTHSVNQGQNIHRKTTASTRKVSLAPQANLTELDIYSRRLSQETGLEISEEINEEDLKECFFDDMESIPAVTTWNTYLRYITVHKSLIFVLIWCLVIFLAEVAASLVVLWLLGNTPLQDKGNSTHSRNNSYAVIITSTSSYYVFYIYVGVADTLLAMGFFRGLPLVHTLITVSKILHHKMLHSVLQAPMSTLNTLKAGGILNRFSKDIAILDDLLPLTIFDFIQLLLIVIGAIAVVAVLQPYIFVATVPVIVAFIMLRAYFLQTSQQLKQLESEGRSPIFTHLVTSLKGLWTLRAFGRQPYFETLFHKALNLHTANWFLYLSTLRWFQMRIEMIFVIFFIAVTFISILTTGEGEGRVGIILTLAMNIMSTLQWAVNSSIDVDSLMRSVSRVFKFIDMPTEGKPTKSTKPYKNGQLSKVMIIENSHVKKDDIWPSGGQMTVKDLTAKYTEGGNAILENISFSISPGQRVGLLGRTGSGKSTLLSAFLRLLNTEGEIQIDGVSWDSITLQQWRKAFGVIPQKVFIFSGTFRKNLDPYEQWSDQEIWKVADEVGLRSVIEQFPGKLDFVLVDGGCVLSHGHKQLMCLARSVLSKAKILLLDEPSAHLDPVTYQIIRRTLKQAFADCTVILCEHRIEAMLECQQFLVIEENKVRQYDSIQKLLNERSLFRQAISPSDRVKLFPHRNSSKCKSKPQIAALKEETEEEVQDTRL

EC50	Structure (SMILES)
> 2 µM	Cc1nn(-c2cccc(C(=O)N(c3ccc4c(c3)OCCO4)C(C)C)c2)c(C)c1Cl [compound 003, 3-(4-Chloro-3,5-dimethyl-pyrazol-1-yl)-N-(2,3-dihydro-1,4-benzodioxin-6-yl)-N-isopropyl-benzamide]
< 1 µM	CCN(C(=O)c1cccc(-n2nc(C)c(Cl)c2C)c1)c1ccc2c(c1)OCCO2 [compound 004, 3-(4-Chloro-3,5-dimethyl-pyrazol-1-yl)-N-(2,3-dihydro-1,4-benzodioxin-6-yl)-N-ethyl-benzamide]
> 2 µM	Cc1nn(-c2cccc(C(=O)N(C)c3ccccc3)c2)c(C)c1Cl [compound 007, 3-(4-Chloro-3,5-dimethyl-pyrazol-1-yl)-N-methyl-N-phenyl-benzamide]
> 2 µM	Cc1nn(-c2cccc(C(=O)N(C)c3ccc4c(c3)OC(F)(F)C(F)(F)O4)c2)c(C)c1Cl [compound 008, 3-(4-Chloro-3,5-dimethyl-pyrazol-1-yl)-N-methyl-N-(2,2,3,3-tetrafluoro-1,4-benzodioxin-6-yl)benzamide]
> 2 µM	CN(C(=O)c1cccc(-n2cccn2)c1)c1ccc2c(c1)OCCO2 [compound 010, N-(2,3-Dihydro-1,4-benzodioxin-6-yl)-N-methyl-3-pyrazol-1-yl-benzamide]
> 2 µM	Cc1cc(C)n(-c2cccc(C(=O)N(C)c3ccc4c(c3)OCCO4)c2)n1 [compound 011, N-(2,3-Dihydro-1,4-benzodioxin-6-yl)-3-(3,5-dimethylpyrazol-1-yl)-N-methyl-benzamide]
> 2 µM	COc1ccc(N(C)C(=O)c2cccc(-n3nc(C)c(Cl)c3C)c2)cc1OC [compound 014, 3-(4-Chloro-3,5-dimethyl-pyrazol-1-yl)-N-(3,4-dimethoxyphenyl)-N-methyl-benzamide]
< 1 µM	Cc1nn(-c2cccc(C(=O)N(C)c3ccc4c(c3)OCO4)c2)c(C)c1Cl [compound 015, N-(1,3-Benzodioxol-5-yl)-3-(4-chloro-3,5-dimethyl-pyrazol-1-yl)-N-methyl-benzamide]
> 2 µM	Cc1cc(C)n(-c2cccc(S(=O)(=O)N(C)c3ccc4c(c3)OCCO4)c2)n1 [compound 017, N-(2,3-dihydro-1,4-benzodioxin-6-yl)-3-(3,5-dimethylpyrazol-1-yl)-N-methyl-benzenesulfonamide]
1 to 2 µM	CCN(C(=O)c1cccc(-n2nc(C)c(Cl)c2C)c1)c1ccc2c(c1)OC(F)(F)O2 [compound 019, 3-(4-Chloro-3,5-dimethyl-pyrazol-1-yl)-N-(2,2-difluoro-1,3-benzodioxol-5-yl)-N-ethyl-benzamide]
1 to 2 µM	Cc1nn(-c2cccc(S(=O)(=O)N(C)c3ccc4c(c3)OCCO4)c2)c(C)c1Cl [compound 020, 3-(4-chloro-3,5-dimethyl-pyrazol-1-yl)-N-(2,3-dihydro-1,4-benzodioxin-6-yl)-N-methyl-benzenesulfonamide]
> 2 µM	COc1ccc(N(C)C(=O)c2cccc(-n3nc(C)c(Cl)c3C)c2)cn1 [compound 021, 3-(4-Chloro-3,5-dimethyl-pyrazol-1-yl)-N-(6-methoxy-3-pyridyl)-N-methyl-benzamide]
< 1 µM	Cc1nn(-c2cccc(C(=O)N(C)c3ccc4c(c3)CCC4)c2)c(C)c1Cl [compound 023, 3-(4-chloro-3,5-dimethyl-pyrazol-1-yl)-N-indan-5-yl-N-methyl-benzamide]
> 2 µM	Cc1nn(-c2cccc(C(=O)N(C)c3ccc4c(c3)ncn4C)c2)c(C)c1Cl [compound 024, 3-(4-Chloro-3,5-dimethyl-pyrazol-1-yl)-N-methyl-N-(1-methylbenzimidazol-5-yl)benzamide]
> 2 µM	Cc1nc2cc(N(C)C(=O)c3cccc(-n4nc(C)c(Cl)c4C)c3)ccc2o1 [compound 025, 3-(4-Chloro-3,5-dimethyl-pyrazol-1-yl)-N-methyl-N-(2-methyl-1,3-benzoxazol-5-yl)benzamide]
> 2 µM	Cc1nn(-c2cccc(C(=O)N(C)c3cccc4c3OC(F)(F)O4)c2)c(C)c1Cl [compound 026, 3-(4-Chloro-3,5-dimethyl-pyrazol-1-yl)-N-(2,2-difluoro-1,3-benzodioxol-4-yl)-N-methyl-benzamide]

EC50	Structure (SMILES)
> 2 µM	Cc1nn(-c2cccc(C(=O)N(C)c3ccc4ocnc4c3)c2)c(C)c1Cl [compound 029, N-(1,3-Benzoxazol-5-yl)-3-(4-chloro-3,5-dimethyl-pyrazol-1-yl)-N-methyl-benzamide]
> 2 µM	Cc1nn(-c2cccc(C(=O)N(c3ccc4c(c3)OCCO4)C3CC3)c2)c(C)c1Cl [compound 030, 3-(4-Chloro-3,5-dimethyl-pyrazol-1-yl)-N-cyclopropyl-N-(2,3-dihydro-1,4-benzodioxin-6-yl)benzamide]
> 2 µM	Cc1ccc(-n2nc(C)c(Cl)c2C)cc1C(=O)N(C)c1ccc2c(c1)OCCO2 [compound 031, 5-(4-chloro-3,5-dimethyl-pyrazol-1-yl)-N-(2,3-dihydro-1,4-benzodioxin-6-yl)-N, 2-dimethyl-benzamide]
< 1 µM	Cc1nn(-c2cccc(C(=O)N(C)c3cc4c(cc3Cl)OCCO4)c2)c(C)c1Cl [compound 032, N-(6-chloro-2,3-dihydro-1,4-benzodioxin-7-yl)-3-(4-chloro-3,5-dimethyl-pyrazol-1-yl)-N-methyl-benzamide]
> 2 µM	CN(C(=O)c1cccc(-n2cc(Cl)cn2)c1)c1ccc2c(c1)OCCO2 [compound 033, 3-(4-Chloropyrazol-1-yl)-N-(2,3-dihydro-1,4-benzodioxin-6-yl)-N-methyl-benzamide]
> 2 µM	Cc1nn(-c2cccc(C(=O)N(C)c3ccc4c(c3)OC(C)(C)O4)c2)c(C)c1Cl [compound 034, 3-(4-Chloro-3,5-dimethyl-pyrazol-1-yl)-N-(2,2-dimethyl-1,3-benzodioxol-5-yl)-N-methyl-benzamide]
> 2 µM	Cc1nn(-c2cccc(S(=O)(=O)N(C)c3ccc4c(c3)OC(F)(F)O4)c2)c(C)c1Cl [compound 035, 3-(4-Chloro-3,5-dimethyl-pyrazol-1-yl)-N-(2,2-difluoro-1,3-benzodioxol-5-yl)-N-methyl-benzenesulfonamide]
> 2 µM	Cc1nn(-c2cccc(C(=O)N(C)c3ccc4c(c3)OCCN4)c2)c(C)c1Cl [compound 036, 3-(4-Chloro-3,5-dimethyl-pyrazol-1-yl)-N-(3,4-dihydro-2H-1,4-benzoxazin-4-ium-7-yl)-N-methyl-benzamide 2,2,2-trifluoroacetate]
1 to 2 µM	Cc1nn(-c2cccc(C(=O)N(C)c3ccc4c(c3)OCCO4)c2)c(C)c1C(C)(C)C [compound 037, 3-(4-tert-Butyl-3,5-dimethyl-pyrazol-1-yl)-N-(2,3-dihydro-1,4-benzodioxin-6-yl)-N-methyl-benzamide]
> 2 µM	Cc1nn(-c2cccc(C(=O)N(C)c3ccc4c(c3)NCCO4)c2)c(C)c1Cl [compound 038, 3-(4-Chloro-3,5-dimethyl-pyrazol-1-yl)-N-(3,4-dihydro-2H-1,4-benzoxazin-4-ium-6-yl)-N-methyl-benzamide 2,2,2-trifluoroacetate]
1 to 2 µM	[2H]C([2H])([2H])N(C(=O)c1cccc(-n2nc(C)c(Cl)c2C)c1)c1ccc2c(c1)OC(F)(F)O2 [compound 039, 3-(4-Chloro-3,5-dimethyl-pyrazol-1-yl)-N-(2,2-difluoro-1,3-benzodioxol-5-yl)-N-(trideuteriomethyl) benzamide]
1 to 2 µM	Cc1cc2c(cc1N(C)C(=O)c1cccc(-n3nc(C)c(Cl)c3C)c1)OCO2 [compound 042, 3-(4-chloro-3,5-dimethyl-pyrazol-1-yl)-N-methyl-N-(6-methyl-1,3-benzodioxol-5-yl)benzamide]
> 2 µM	CCOC(=O)c1c(C)nn(-c2cccc(C(=O)N(C)c3ccc4c(c3)OCO4)c2)c1C [compound 043, Ethyl 1-[3-[1,3-benzodioxol-5-yl(methyl)carbamoyl]phenyl]-3,5-dimethyl-pyrazole-4-carboxylate]
> 2 µM	Cc1nn(-c2cccc(C(=O)N(C)c3ccc4c(c3)CCCC4)c2)c(C)c1Cl [compound 044]
< 1 µM	Cc1nc2ccc(N(C)C(=O)c3cccc(-n4nc(C)c(Cl)c4C)c3)cc2o1 [compound 047, 3-(4-Chloro-3,5-dimethyl-pyrazol-1-yl)-N-methyl-N-(2-methyl-1,3-benzoxazol-6-yl)benzamide]
> 2 µM	Cc1nn(-c2cccc(C(=O)N(C)c3ccc4c(c3)OCO4)c2)c(C)c1C(=O)O [compound 048, 1-[3-[1,3-Benzodioxol-5-yl(methyl)carbamoyl]phenyl]-3,5-dimethyl-pyrazole-4-carboxylic acid]

Reference: patent US12492193B2, “Pyrazole derivatives for the treatment of cystic fibrosis” (Fondazione Istituto Italiano Di Tecnologia, priority 2017, dated 2025)
